Experimental data reported in US11596633B2, “SHP2 inhibitor compositions and methods for treating cancer” (Revolution Medicines, Inc., priority 2017, dated 2023).

What was measured:
KYSE-410 = assay: 3D cell viability (CTG); type: cell-based; conditions: Homo sapiens; KYSE-410, KRAS G12C, 3D culture
Method: (§2) To evaluate cell viability in 3D culture, cells in logarithmic growth phase were plated in growth medium containing 0.65% methylcellulose at an optimum seeding density. Cells were incubated overnight prior to treatment with different concentrations of the test article. Cells were cultured for an additional seven days and cell viability assessed using the CellTiterGlo™ (CTG) reagent, according to the manufacturer's instructions. In some instances, cells were grown in 3D culture as spheroids. Briefly, 2500 cells/well were seeded in round bottom ultra-low attachment 96-well plates (Corning) in growth media supplemented with 10% fetal bovine serum and 1% penicillin/streptomycin, and allowed to form spheroids for 72 hours at 37° C. in 5% CO2. […] Following drug exposure for five days, cell viability in spheroids was determined using the CellTiter-Glo assay kit.

SW837 = assay: 3D cell viability (CTG); type: cell-based; conditions: Homo sapiens; SW837, KRAS G12C, 3D culture
Method: as §2

NCI-H1792 = assay: 3D cell viability (CTG); type: cell-based; conditions: Homo sapiens; NCI-H1792, KRAS G12C, 3D culture
Method: (§3) To evaluate cell viability in 3D culture, cells in logarithmic growth phase were plated in growth medium containing 0.65% methylcellulose at an optimum seeding density. Cells were incubated overnight prior to treatment with different concentrations of the test article. Cells were cultured for an additional seven days and cell viability assessed using the CellTiterGlo™ (CTG) reagent, according to the manufacturer's instructions. In some instances, cells were grown in 3D culture as spheroids. Briefly, 2500 cells/well were seeded in round bottom ultra-low attachment 96-well plates (Corning) in growth media supplemented with 10% fetal bovine serum and 1% penicillin/streptomycin, and allowed to form spheroids for 72 hours at 37° C. in 5% CO2. […] Following drug exposure for five days, cell viability in spheroids was determined using the CellTiter-Glo assay kit. […] After one day in culture, cells were treated with the test article, which was then replenished every three days. Cells were maintained in culture for 10 days until the control wells reached confluency at which time the cells were fixed and stained with crystal violet.

NCI-H1373 = assay: 3D cell viability (CTG); type: cell-based; conditions: Homo sapiens; NCI-H1373, KRAS G12C, 3D culture
Method: as §3

Calu-1 = assay: 3D cell viability (CTG); type: cell-based; conditions: Homo sapiens; Calu-1, KRAS G12C, 3D culture
Method: as §2

SHP-77 = assay: 3D cell viability (CTG); type: cell-based; conditions: Homo sapiens, SHP77; SHP-77, KRAS G12V, 3D culture
Method: as §2

NCI-H1944 = assay: 3D cell viability (CTG); type: cell-based; conditions: Homo sapiens; NCI-H1944, KRAS G13D, 3D culture
Method: as §2

T84 = assay: 3D cell viability (CTG); type: cell-based; conditions: Homo sapiens; T84, KRAS G13D, 3D culture
Method: as §2

NCI-H460 = assay: 3D cell viability (CTG); type: cell-based; conditions: Homo sapiens; NCI-H460, KRAS Q61H, 3D culture
Method: as §2

Calu-6 = assay: 3D cell viability (CTG); type: cell-based; conditions: Homo sapiens; Calu-6, KRAS Q61K, 3D culture
Method: as §2

H358 KRas G12C xenograft = assay: NSCLC H358 xenograft, CB.17 SCID mice; type: in vivo; conditions: oral administration
Method: Compound A or Compound B were administered by oral gavage daily. The positive control, paclitaxel (30 mg/kg iv) in 5% ethanol, 5% cremophor EL, in 5% dextrose in deionized water was administered once every five days. Trametinib (1 mg/kg PO in 0.5% Methylcellulose+0.5% Tween 80) was administered by oral gavage daily. The study endpoint was defined as a mean tumor volume of 2000 mm^3 in the control group or 22 days, whichever came first. Mean tumor volume data are reported for all animals that remained on study.

RAS-GTP in A375 cells = assay: RAS-GTP pulldown (Raf-RBD); type: cell-based; conditions: A375 (Class I BRAF V600E)
Method: (§1) To determine the effects of small molecules on levels of activated RAS-GTPase, cell lines of interest were cultured under standard 2D culture conditions. Cells were seeded and following overnight incubation incubated at 37° C. with vehicle (DMSO) or test article(s). After an appropriate incubation period, cells were washed and cell lysis buffer added to prepare a cell lysate. The levels of Ras-GTP in the lysates were determined using affinity purification of a Raf-RBD (Ras binding domain of Raf)/GTP-Ras complex. In one approach, the Pierce Active Ras Pulldown and Detection Kit was used. Briefly, clarified lysates (500 μg total protein, quantified by BCA) were mixed with glutathione resin, which had been preincubated with GST-Raf-RBD. The mixture was vortexed and incubated at 4° C. for 1 hour with gentle rocking. The resin was washed three times with lysis buffer and bound Ras-GTP eluted by addition of 2× reducing sample buffer. Eluted proteins were separated by SDS-PAGE using a 4-15% Tris-glycine gel (BioRad). Proteins were transferred to a nitrocellulose membrane for western blot using an anti-Ras antibody (Thermofisher, 1:200) and a Licor IRDye-800 anti-mouse secondary antibody (1:20,000). The Licor Odyssey CLx was used for visualization.

RAS-GTP in Cal-12T cells = assay: RAS-GTP pulldown (Raf-RBD); type: cell-based; conditions: Cal-12T (Class III BRAF G466V/+)
Method: as §1

RAS-GTP in MeWo cells = assay: RAS-GTP pulldown (Raf-RBD); type: cell-based; conditions: MeWo (NF1 LOF)
Method: as §1

[1] = tested on: RAS-GTP in NCI-H1666 cells; assay: RAS-GTP pulldown (Raf-RBD); type: cell-based; conditions: NCI-H1666 (Class III BRAF G466V/+)
Method: as §1

[2] = tested on: RAS-GTP in NCI-H508 cells; assay: RAS-GTP pulldown (Raf-RBD); type: cell-based; conditions: NCI-H508 (Class III BRAF G596R/+)
Method: as §1

A375 cells = assay: 3D proliferation (CTG); type: cell-based; conditions: A375 (Class I BRAF V600E), 3D culture
Method: as §2

SHP2 Tyr-542 and Tyr-580 = assay: SHP2 tyrosine phosphorylation western blot; type: cell-based; conditions: 5 μM, 1 hour; MEFs, HEK293, H358; EGF or PDGF stimulated
Method: Cells (MEFs, HEK 293E, H358) were plated in 6-well plates at a density of 750,000 cells/well in low serum (0.1% FBS) media and allowed to grow overnight. […] Cells were stimulated with 50 ng/mL of EGF or PDGF for 5 minutes, washed with cold PBS, and 150 μL of lysis buffer (Thermo #1862301) with Halt Protease/Phosphatase inhibitor (Thermo #78440) was added. Cells were scraped, transferred to a cold Eppendorf tube and vortexed for 10 seconds. Lysates were spun at 4 C for 15 min at 13,000 rpm and transferred to a new tube. Lysate protein concentration was assessed using the BCA assay. Lysates (30 μg/lane) were run on a 4-15% Tris glycine gel and transferred to a nitrocellulose membrane using the iBlot2. Western blots were performed using phospho-SHP2 antibodies from Cell Signaling Technologies; […] (#3751) and […] (#3703) were both used at 1:1000 dilution in 5% BSA in TBS. Membranes were incubated with primary antibody overnight with gentle shaking at 4 C. Beta actin antibody (Cell Signaling Technologies #8457, 1:2000) was used as a loading control. The secondary antibody (Licor IRDye 800 CW anti-rabbit) was used at a 1:20000 dilution in 5% BSA in TBS for 1 hour shaking at room temperature. Blots were visualized using the Licor Odyssey Clx Imager.

NCI-H358 xenograft = assay: NCI-H358 xenograft, alone and with trametinib (Example 7); conditions: for tumor growth inhibition, TGI: repeated daily dosing
Method: The effects of a SHP2 inhibitor on tumor cell growth in vivo were evaluated in the NSCLC H358 xenograft model using female athymic nude mice (6-8 weeks old). Mice were implanted with H358 tumor cells in 50% Matrigel (1×10^7 cells/animal) subcutaneously in the flank. Once tumors reached an average size of 200 mm^3 mice were randomized to treatment groups and administration of test article or vehicle (50 mM acetate buffer, pH 4.6 containing 10% captisol, unless otherwise indicated) initiated. […] Body weight and tumor volume (using calipers) was measured every other day until study endpoints.

Nc1nc(N2CCC3(CCC[C@H]3N)CC2)cnc1Sc1ccnc(Cl)c1Cl [Compound A]
IC50 (KYSE-410): 0.1 µM
IC50 (SW837): 0.3 µM
IC50 (NCI-H1792): 1.2 µM
IC50 (NCI-H1373): 1.3 µM
IC50 (Calu-1): > 10 µM
IC50 (SHP-77): > 10 µM
IC50 (NCI-H1944): > 10 µM
IC50 (T84): > 10 µM
IC50 (NCI-H460): > 10 µM
IC50 (Calu-6): > 10 µM
tumor volume (H358 KRas G12C xenograft): dose-dependent decrease

Cc1nc(N2CCC3(CC2)CO[C@@H](C)[C@H]3N)c(CO)nc1-c1cccc(Cl)c1Cl [Compound B]
RAS-GTP levels (RAS-GTP in A375 cells): failed to suppress
RAS-GTP levels (RAS-GTP in Cal-12T cells): suppression
RAS-GTP levels (RAS-GTP in MeWo cells): downregulation
RAS-GTP levels [1]: suppression
RAS-GTP levels [2]: suppression
proliferation (A375 cells): failed to suppress
phosphorylation levels of SHP2 Y580 (SHP2 Tyr-542 and Tyr-580): decreases
tumor growth inhibition, TGI (NCI-H358 xenograft; 10 mg/kg PO): 54%
tumor growth inhibition, TGI (NCI-H358 xenograft; 30 mg/kg PO): 79%
tumor growth as compared to the vehicle control (NCI-H358 xenograft; single agent, Compound B 10 and 30 mg/kg, trametinib 1 mg/kg): significant tumor growth inhibition
